Source: ChEMBL document CHEMBL1148145, “2,3,4-Trimethyl-5,7-dihydroxy-2,3-dihydrobenzofuran, a novel antioxidant, from Penicillium citrinum F5” (J Nat Prod, 2002)

system: Radical scavenging activity; experiment: Antioxidant activity assessed as DPPH radical scavenging activity after 30 mins by spectrophotometry; format: functional

| Compound | IC50 [µM] |
| --- | --- |
| Cc1c(O)cc(O)c2c1[C@@H](C)[C@H](C)O2 | 10.4 |
| CC(C)(Sc1cc(C(C)(C)C)c(O)c(C(C)(C)C)c1)Sc1cc(C(C)(C)C)c(O)c(C(C)(C)C)c1 [PROBUCOL] | 36.1 |
| Cc1c(C)c2c(c(C)c1O)CCC(C)(C(=O)O)O2 (stereo not given) [TROLOX] | 8.77 |

More lines, in order of falling IC50, values ahead:

| IC50 [µM] | Compound |
| --- | --- |
| 8.92 | O=C1O[C@H]([C@@H](O)CO)C(O)=C1O [ASCORBIC ACID] |
| 4.26 | O=C(O)c1cc(O)ccc1O [GENTISIC ACID] |
